Common to all, as to assay type: cell-based
For assay [1], the system named is Control cells (cells that do not express rat GPR54). The experiment in a line: β-lactamase reporter assay in control cells. As to conditions: data not shown. The protocol: β-lactamase assays were carried as described by (Zlokarnik et al., 1998, Quantitation of transcription and clonal selection of single living cells with beta-lactamase as reporter. Science 1998, 279:84-88). All peptides were from Phoenix Pharmaceuticals. Cells were seeded two days prior to assay. The day before being assayed, cells were changed to serum-free media. Four (4) hours after the addition of ligands, cells were loaded with dye and measured for fluorescence approximately 45 minutes later.
These peptides were then individually tested against GPR54-expressing cells.

For assay [2], the target named is T1, rat GPR54 (Rattus norvegicus, UniProt Q924U1).
T1 construct: expressed in transfected cells
The experiment in a line: β-lactamase reporter enzyme assay in CHO-NPAT-bla cells expressing rat GPR54. The protocol: The full-length coding sequence of rat GPR54 was sub-cloned into the expression vector pIRESpuromycin (Clontech, Palo Alto, Calif., USA) in accordance with the manufactures directions. This GPR54 plasmid was transfected into Aurora's CHO-NPAT-bla cells using the reagent Lipofectamine 2000 (GIBCO-BRL, Gaithersburg, Md., USA). Puromycin-resistant bulk stables expressing rat GPR54 were selected and used for screening for agonist.
β-lactamase assays were carried as described by (Zlokarnik et al., 1998, Quantitation of transcription and clonal selection of single living cells with beta-lactamase as reporter. Science 1998, 279:84-88). All peptides were from Phoenix Pharmaceuticals. […] Four (4) hours after the addition of ligands, cells were loaded with dye and measured for fluorescence approximately 45 minutes later.
An extremely sensitive transcription-based assay is disclosed in Zlokarnik et al., 1998, Science 279:84-88 (Zlokarnik) and also in U.S. Pat. No. 5,741,657, both of which are incorporated by reference in their entirety herein. […] This increase in β-lactamase is measured by treating the cells with a cell-permeable dye that is a substrate for cleavage by β-lactamase. […] In the intact dye, the two fluorescent moieties are physically linked, and thus close enough to one another that fluorescence resonance energy transfer FRET) can take place between them. […]

Assay [3] has as its target T2, Human GPR54 receptor (Homo sapiens, UniProt Q969F8, L364H).
T2 construct: Clones containing full-length GPR54 were thus identified; expressed in transfected cells
Briefly: aequorin assay in HEK293/aeq17 cells expressing human GPR54. As to conditions: aequorin luminescence, 5-fold serial dilutions, triplicates. The protocol:
The HEK293/aeq17 cell line was licensed in from NIH (Button and Brownstein, 1993, Cell Calcium, 14:663-671). The cells were grown in Dulbecco's Modified Medium (MEM, GIBCO-BRL, Gaithersburg, Md., USA)+10% fetal bovine serum (heat inactivated), 1 mM sodium pyruvate, 500 ug/ml Geneticin, 100 ug/ml streptomycin, 100 units/ml penicillin. […] Puromycin-resistant clones were selected and bulk stables were used for further analysis.
For the aequorin assay, cell were washed once with DMEM+0.1% fetal bovine serum, and then charged for one hour at 37° C. 15% CO2 in DMEM containing 8 uM coelenterazine cp (Molecular Probes, Eugene, Oreg., USA) and 30 uM glutathione. […] The cell density was determined by counting with a hemacytometer and adjusted to 500,000 cells/ml in ECB.
The neuropeptides were diluted in ECB into 2× concentrates using 5-fold serial dilutions, and aliquoted into assay plates in triplicates at 0.1 ml/well. The cell suspension was injected at 0.1 ml/well, read and integrated for a total of 400 readings using a luminometer (Luminoskan Ascent, Labsystems Oy, Helsinki, Finland). Data was analyzed using the software GraphPad Prism Version 3.0 (GraphPad Software, Inc., San Diego, Calif., USA).

Results on two substances are retold here after US20050075494A1, “Isolated nucleic acid molecules encoding a human and mouse g protein-coupled receptor-gpr54: encoded proteins, cells transformed therewith and uses thereof” (priority 2000, published 2005).

T1 sequence (Q924U1 whole entry): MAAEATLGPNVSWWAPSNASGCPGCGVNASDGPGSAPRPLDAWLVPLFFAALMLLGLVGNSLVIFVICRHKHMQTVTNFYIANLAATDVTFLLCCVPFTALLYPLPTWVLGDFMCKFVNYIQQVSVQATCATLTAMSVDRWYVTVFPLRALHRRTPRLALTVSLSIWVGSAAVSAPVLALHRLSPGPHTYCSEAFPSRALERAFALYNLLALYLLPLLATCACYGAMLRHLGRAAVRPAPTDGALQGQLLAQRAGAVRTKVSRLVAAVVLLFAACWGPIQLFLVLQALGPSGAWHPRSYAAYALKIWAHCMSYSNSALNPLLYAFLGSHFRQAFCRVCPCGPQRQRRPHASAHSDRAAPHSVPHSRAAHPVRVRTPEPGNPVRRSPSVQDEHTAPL
T2 sequence (Q969F8 whole entry L364H): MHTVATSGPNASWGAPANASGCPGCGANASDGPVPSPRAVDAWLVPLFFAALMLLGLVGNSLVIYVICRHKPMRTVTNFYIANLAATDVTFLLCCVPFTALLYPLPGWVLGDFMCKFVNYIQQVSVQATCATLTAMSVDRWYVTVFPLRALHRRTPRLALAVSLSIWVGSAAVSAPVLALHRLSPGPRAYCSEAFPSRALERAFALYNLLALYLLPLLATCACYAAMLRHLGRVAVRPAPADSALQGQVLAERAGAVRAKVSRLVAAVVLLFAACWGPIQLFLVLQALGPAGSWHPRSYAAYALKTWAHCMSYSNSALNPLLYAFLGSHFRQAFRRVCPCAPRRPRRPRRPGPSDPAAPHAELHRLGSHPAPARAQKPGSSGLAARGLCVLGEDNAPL

On to antho-RWamide I, for which the “response of control cells” value in assay [1] is on record as “no response”. For the same substance, the “dose-response activation of rat GPR54 (FIG. 8)” value in assay [2] (peptides individually tested against GPR54-expressing cells) is reported as “activated rat GPR54 in a dose-dependent manner”. Also, the “activation of rat GPR54 in the primary screening” value in assay [2] (primary agonist screening, cells expressing rat GPR54, β-lactamase readout 4 hours after ligand addition) is recorded as “activate rat GPR54 specifically”. For the same substance, in assay [3], the “response of cells expressing Human GPR54 receptor (FIG. 9)” value is “robust, dose-dependent response”.
For the substance antho-RW amide II, the “response of cells expressing Human GPR54 receptor (FIG. 9)” value in assay [3] is “robust, dose-dependent response”.
